From BindingDB's records for doi:10.7270/Q2S75DRW (Burnham Center For Chemical Genomics, 2008)

Target: Heat shock 70 kDa protein 1A (Homo sapiens, UniProt V9GZ37)
Experiment: Hsp70 inhibitors, SAR follow-up, biochemical, fluorescence polarization (AID 1072)

Chain of Heat shock 70 kDa protein 1A (V9GZ37 whole entry): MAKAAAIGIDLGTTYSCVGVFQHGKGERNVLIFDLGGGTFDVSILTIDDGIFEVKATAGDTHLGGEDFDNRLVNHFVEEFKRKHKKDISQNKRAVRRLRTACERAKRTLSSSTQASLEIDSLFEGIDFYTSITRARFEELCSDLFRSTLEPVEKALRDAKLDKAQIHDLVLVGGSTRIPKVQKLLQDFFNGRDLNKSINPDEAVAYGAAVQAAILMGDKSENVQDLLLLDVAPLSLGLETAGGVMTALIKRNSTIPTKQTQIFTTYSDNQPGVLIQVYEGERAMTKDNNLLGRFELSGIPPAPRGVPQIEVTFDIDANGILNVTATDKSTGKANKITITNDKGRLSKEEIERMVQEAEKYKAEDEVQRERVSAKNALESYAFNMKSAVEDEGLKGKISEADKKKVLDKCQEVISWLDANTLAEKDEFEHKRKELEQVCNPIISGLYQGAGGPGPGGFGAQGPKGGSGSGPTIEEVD

IC50: 34.2 µM
SMILES: O=C1C=C2CC3(O)CCc4c(ccc(O)c4O)C3=C2CC1=O (stereo unspecified) [3,4,6a,10-tetrakis(oxidanyl)-6,7-dihydro-5H-benzo[g]fluoren-9-one]
